“Also recorded” adds a separate entry of the source. Where two headings read alike, the source gives them in different places.
Assays:
neurologic WD patients = details: cited from earlier work
[1] = unit inferred; read-out: Kd (copper affinity); cited from earlier work
Atp7b^−/− rats = experiment: Chelator treatment of WD rats: copper in serum, urine and feces (ICP-OES); assay type: in vivo, rat
Procedure: Control Atp7b^+/- and WD Atp7b^-/- rats were fed ad libitum with normal chow (1314; 13.89 mg Cu/kg; Altromin Spezialfutter GmbH, […], Germany) and tap water. All rats were healthy at treatment start and presented no signs of acute liver damage (serum AST <200 U/L and serum bilirubin <0.5 mg/dl). […] Untreated Atp7b^+/- and Atp7b^-/- rats served as controls. Urine and feces were collected at 24-hour intervals for which rats were housed individually in metabolic cages for 4 days. After a two-day resting period off treatment in normal cages and group housing, rats were sacrificed for serum collection.

[2] = test system: HepG2, EA.hy926, U87MG and SHSY5Y cells; experiment: Cu-albumin cell toxicity, CellTiter-Glo, all investigated cell lines; assay type: cell-based, human
Procedure: (§1) SHSY5Y (human neuroblastoma), U87MG (human astrocytoma), EA.hy926 (human endothelium) and HepG2 (human hepatocellular carcinoma) cells were from ATCC (Wesel, Germany) and were cultured in Dulbecco's Modified Eagle Medium (DMEM) supplemented with 10% FCS (Biochrom, Berlin, Germany) and 1% antibiotic-antimycotic (Life Technologies, Carlsbad, USA). All cells were maintained at 37° C. in a humidified atmosphere with 5% CO2.

HepG2 cells [3] = experiment: Cu-albumin cell toxicity, CellTiter-Glo, HepG2; assay type: cell-based, human; details: HepG2, 750 μM chelator
Procedure: as §1

EA.hy926 cells [4] = experiment: Cu-albumin cell toxicity, CellTiter-Glo, EA.hy926; assay type: cell-based, human; details: EA.hy926, 750 μM chelator
Procedure: as §1

[5] = test system: HepG2, EA.hy926, U87MG and SHSY5Y cells; experiment: Toxicity of the chelator itself in a copper-free setting, CellTiter-Glo
Procedure: as §1

[6] = test system: HepG2, EA.hy926, U87MG and SHSY5Y cells; experiment: Cellular copper content (ICP-OES), all cell lines; assay type: cell-based, human; details: 750 μM copper, 250 μM albumin, 750 μM chelator, 24 h; vs Cu-albumin alone
Excerpt: (§2) Afterwards, cells were trypsinized and counted.

EA.hy926 cells [7] = experiment: Cellular copper content (ICP-OES), EA.hy926; assay type: cell-based, human; details: EA.hy926; 750 μM copper, 250 μM albumin, 750 μM chelator; vs Cu-albumin alone
Excerpt: as §2

HepG2 cells [8] = experiment: Cellular copper content (ICP-OES), HepG2; assay type: cell-based, human; details: 750 μM copper, 250 μM albumin, 750 μM chelator, vs Cu-albumin alone
Excerpt: as §2

SHSY5Y cells = experiment: Cellular copper content (ICP-OES), SHSY5Y; assay type: cell-based, human; details: 750 μM copper, 250 μM albumin, 750 μM chelator, vs Cu-albumin alone
Excerpt: as §2

EA.hy926 and U87MG cells = experiment: Electron microscopy of mitochondrial structure; assay type: cell-based, human; details: electron micrographs, co-treatment with chelator
Excerpt: Electron microscopy of cells was done as previously described ([…]., et al., Cell Mol Gastroenterol Hepatol, 2018. 7(3): p. 571-596) on a 1200EX electron microscope (JEOL, […], Japan) at 60 kv. Pictures were taken with a […] digital camera (Olympus, Hamburg, Germany) and processed by the iTEM software package (analySIS FIVE, Olympus, Hamburg, Germany).

PBCEC monolayers [9] = experiment: TEER and capacitance of PBCEC monolayers (endothelial blood-brain barrier model); assay type: cell-based, porcine
Excerpt: (§3) For transepithelial resistance (TEER) experiments (Srinivasan, B., et al., J Lab Autom, 2015. 20(2): p. 107-26), cryopreserved primary porcine brain capillary endothelial cells (PBCECs) were thawed and seeded either on rat tail collagen-coated 96-well plates for cytotoxicity testing using the Neutral red assay (Repetto, G., A. del Peso, and J. L. Zurita, Nat Protoc, 2008. 3(7): p. 1125-31) or Transwell® inserts (area: 1.12 cm^2, pore size: 0.4 μm: Corning, N.Y., USA) for barrier integrity studies. Cells were cultured for 48 hours in Earle's Medium 199 supplemented with 10% FCS, 50 U penicillin/mL, 50 μg/mL streptomycin, 100 μg/mL gentamycin and 0.7 mM I-glutamine and maintained at 37° C. in a humidified atmosphere with 5% CO2. […] TEER and capacitance values were continuously monitored over 48 h using a CellZscope device (nanoAnalytics, Münster, Germany). Only PBCEC monolayers with initial TEER values >600Ωcm^2 and capacitance values between 0.45 and 0.6 μF/cm^2 were used for permeability studies (Bornhorst, J., et al., J Biol Chem, 2012. 287(21): p. 17140-51). The barrier integrity was calculated by normalizing the TEER values to the respective start values.

PBCEC monolayers [10] = experiment: Copper in the basolateral compartment of the Transwell PBCEC model (ICP-MS/MS); assay type: cell-based, porcine; details: 250 μM copper and 83.3 μM albumin, 250 μM chelator, after 48 h
Excerpt: as §3

[11] = test system: tight junction protein claudin-5; experiment: Immunocytochemistry staining of claudin-5 in PBCEC monolayers; assay type: cell-based, porcine; details: 250 μM copper and 83.3 μM albumin, 250 μM chelator
Procedure: Total copper was determined by ICP-MS/MS as previously described (Kopp, J. F., et al., J Trace Elem Med Biol, 2019. 54: p. 221-225). For the immunocytochemical staining of tight junction proteins, confluent PBCECs cultivated on Transwell® membrane inserts were processed as previously described ([…]., et al., Archives of Toxicology 2018. 92(2): p. 823-832). Briefly, PBCECs were fixed with formaldehyde and permeabilized using Triton X-100. After blocking of unspecific binding sites by albumin, the cells were incubated with the either anti-claudin 5 or anti-ZO-1 antibody (Zytomed Systems GmbH, Berlin, Germany). Following a second blocking step, the cells were treated with an Alexa Fluor® 488 conjugated secondary antibody (Invitrogen, Molecular Probes Inc., Eugene, USA). Hoechst 33258 (Merck, Darmstadt, Germany) was used to stain cell nuclei. Subsequently, membranes were cut out of the inserts and mounted in Aqua Poly/Mount (Polysciences Inc., Washington, USA). After a solidification period of 24 hours, the samples were evaluated using a DM6 B fluorescence microscope by Leica Microsystems CMS GmbH (Wetzlar, Germany) in combination with the Leica Application Suite X.

PBCEC monolayers [12] = experiment: Electron microscopy of tight junctions of PBCECs; assay type: cell-based, porcine; details: copper-treated PBCECs, electron micrographs
Procedure: Electron microscopy of PBCECS grown on Transwell® inserts was performed as previously described (Ye, D., K. A. Dawson, and I. Lynch, Analyst, 2015. 140(1): p. 83-97) with minor modifications. Briefly, after fixation with 2.5% glutaraldehyde, cell monolayers were post-fixed with 1% osmium tetroxide for 30 min and dehydrated by ethanol.

[13] = test system: HepG2, EA.hy926, U87MG and SHSY5Y cells; details: 750 μM copper, 250 μM albumin, 750 μM chelator
Procedure: 2×10^4 cells were seeded into each well of a 96-well plate and incubated overnight. […] Cell toxicity was either determined by CellTiter-Glo® assay (Promega, Madison, USA) or Trypan blue exclusion test.
Afterwards, cells were trypsinized and counted. Cell viability was determined by Trypan blue exclusion test.

[14] = in vivo; cited from earlier work

[SH-].[SH-].[S]=[Mo]=[S] [TTM, tetrathiomolybdate]
neurological worsening (neurologic WD patients; human, in vivo): hardly reported

N[C@@H](Cc1c[nH]cn1)C(=O)O [histidine]
Kd [1]: ~1 nM

CC(C)(S)[C@@H](N)C(=O)O [DPA, (2S)-2-amino-3-methyl-3-sulfanylbutanoic acid, reference compound]
fecal copper excretion (Atp7b^−/− rats; during treatment): unchanged | urinary copper excretion (Atp7b^−/− rats; during treatment, urine collected over 24 h): significantly increased; also recorded: significant increase | serum copper levels (Atp7b^−/− rats; i.p. once daily for 4 consecutive days (ALXN1840 2.5 mg/kg bw, DPA 100 mg/kg bw), serum at sacrifice after resting period): elevated blood copper was not observed | share of net copper intake found in the urine (Atp7b^−/− rats; upon DPA treatment, total net uptake 3.95 μmol/24 h): 10% | copper found in the urine (Atp7b^−/− rats; upon DPA treatment, unpublished observation): 0.4 μmol/24 h | CellTiterGlo-assessed cell viability / Cu-albumin toxicity ([2]; 750 μM chelator, 250 μM albumin, copper 250 to 2500 μM, 24 h): much less effective; also recorded: not significantly increased | CellTiterGlo-assessed cell viability / Cu-albumin toxicity ([2]; low dose of chelator (250 μM)): no effect on cell viability | CellTiterGlo-assessed cell viability / Cu-albumin toxicity (HepG2 cells [3]): modest rescuing effect | CellTiterGlo-assessed cell viability / Cu-albumin toxicity (EA.hy926 cells [4]): completely absent | non-toxic concentrations ([5]; copper-free setting): up to 2 mM | CellTiterGlo-assessed cell viability with chelator alone ([5]; without external Cu-albumin addition): not observed | cellular copper content [6]: in none of the cell lines a significant de-coppering was noted; also recorded: did not change the amount of copper uptake | cellular copper content (EA.hy926 cells [7]): tendentiously lower copper content | cellular copper content (HepG2 cells [8]): highly similar cellular copper contents | cellular copper content (SHSY5Y cells): tendentiously lower copper content | Cu-albumin-induced alterations of mitochondrial structure (EA.hy926 and U87MG cells): no/minor effect; also recorded: no positive effect | transepithelial electrical resistance (TEER) (PBCEC monolayers [9]; 250 μM copper and 83.3 μM albumin, 250 μM chelator, 48 h): not able to prevent the copper-induced TEER loss; also recorded: reduction of the TEER comparable to Cu-albumin treatment alone | capacitance values (PBCEC monolayers [9]; Cu-albumin treatment in the absence or presence of chelator): unaffected | copper in the basolateral compartment (copper influx) (PBCEC monolayers [10]): could not be avoided | claudin-5 staining pattern / copper-induced gap formation [11]: could not prevent copper-induced gap formation; also recorded: did not prevent copper-induced gap formation | loss of electron-dense protein complexes at the cell-cell borders (PBCEC monolayers [12]): not protected and not | Trypan blue-assessed cell viability / copper-related cell toxicity [13]: could not be avoided | blood peak after application [14]: 1 to 3 h | patients with dramatic symptom worsening (neurologic WD patients; shortly upon treatment onset): 19-52% | neurological worsening (neurologic WD patients; treated patients): frequently occur

From patent publication US20220387370A1, “METHODS OF REDUCING NEUROLOGICAL DAMAGE IN WILSON DISEASE PATIENTS” (priority 2019, published 2022)
